Where a name gives a salt, the structure may show the parent alone. Read-outs that look alike come from different tables or passages of the source.
Tests used:
Type in all cases: physicochemical
[1] = Solubility of salts in buffer systems at 37° C. (Table 14); conditions: thermodynamic from solid, 20 mg in 1 mL
Procedure: The solubility (Table 14) was determined by adding 20 mg of salts (Examples 3 to 8) into 3 HPLC vials, to each vial, a magnetic stirrer bar was added along with 1 mL of the appropriate buffer system (pH 1.2 HCl, pH 4.5 sodium acetate, or pH 6.8 phosphate). The samples were agitated at 37° C. for […]. After 24 hours, the slurries were isolated by centrifugation filtration and isolated mother liquors were analyzed by HPLC.
HPLC method (Table 14): A Dionex Ultimate 3000 HPLC instrument was used with a Waters XSelect HSS T3 Column (100 angstrom, 4.6×150 mm, 5 μm). The column temperature was set to 20° C., the UV wavelength set to 254 nm, the injection volume was 10 μL, with a flow rate of 1.0 mL/min. 10 mM ammonium acetate adjusted to pH 4.8 was used as a mobile phase A, and acetonitrile was used as mobile phase B. The gradient method was set up to achieve 15% mobile phase B at 0 minutes, 95% mobile phase B at 17 minutes—held until 22 minutes, 15% mobile phase B at 22.1 minutes—held until 28 minutes.

[2] = Physical stability (PXRD) after storage at 70° C.
Procedure: Physical Stability (PXRD) (Table 12): Powder X-ray diffraction analysis was conducted using a Bruker AXS D8 Endeavor diffractometer equipped with a Cu radiation source. The divergence slit was set at 10 mm continuous illumination. Diffracted radiation was detected by a PSD-Lynx Eye detector, with the detector PSD opening set at 2.99 degrees. The X-ray tube voltage and amperage were set to 40 kV and 40 mA respectively. Data was collected in the Theta-Theta goniometer at the Cu wavelength from 3.0 to 40.0 degrees 2-Theta using a step size of 0.02 degrees and a step time of 0.3 second. The antiscatter screen was set to a fixed distance of 1.5 mm. Samples were rotated at 15/min during collection. Samples were prepared by placing them in a silicon low background sample holder and rotated during collection. Data were collected using Bruker DIFFRAC Plus software and analysis was performed by EVA diffract plus software. A Small divot sample holder was used.
Physical Stability (PXRD) (Table 13): The Rigaku MiniFlex 6G Diffractometer used is equipped with a Cu radiation source. Diffracted radiation was detected by a D/teX Ultra2 detector. The X-ray tube voltage and amperages were set to 40 kV and 15 mA respectively. Data was collected in the Miniflex goniometer at the Cu wavelength from 3.0 to 45.0° 20 using a step width of 0.02° and a step speed of 2.00°/minute. The incident slit box was set to 1.25° and the length limiting slit was set at 10 mm. The sample was rotated at 10 RPM during collection. The data was analyzed using Rigaku software SmartLab Studio II.
The sample was prepared by placement into a silicon low background sample holder (0.2 indent plate). The sample was confirmed to be level and packed prior to measurement. The sample was not ground (by mortar and pestle, or by any other means) prior to placement in the sample holder.

[3] = Dynamic vapor sorption, hygroscopicity (Tables 12 and 13); conditions: DVS
Procedure: Dynamic Vapor Sorption (“DVS”) (Table 12): The microbalance was calibrated using a 100 mg standard weight. The relative humidity sensor was calibrated at 5.0, 11.3, 32.8, 52.8, 75.3, and 84.3% RH (25° C.) using saturated salt solutions, as well as 80% RH (25° C.) using polyvinylpyrrolidone. 8-10 mg of the powder sample was placed in the platinum sample pan. There is no drying step with this method. The RH is first maintained at 30% RH, then decreased to 10% RH, and then 3% RH using the criteria of moving on when the weight change of the sample was <0.001 wt % in 5 min or after reaching a maximum equilibration time of 60 minutes. […] Again, the attainment of equilibrium was assumed when the weight change of the sample was <0.001 wt % in 5 min or by a maximum equilibration time of 120 minutes.
DVS (Table 13): Water sorption and desorption were analyzed with a DVS-Resolution. The microbalance is calibrated with a 100 mg standard weight on a monthly basis. About 5 mg of API was added to a translucent sample pan and placed inside chamber A of the DVS-Resolution. Percent relative humidity was held at 0% for 1 hour, and increased to 90% in 10% increments, then ramped back to 0% in 10% increments.

[4] = Dynamic vapor sorption of salts (Table 14); conditions: 25° C.
Procedure: DVS (Table 14): Approximately, 10-20 mg of sample was placed into a mesh vapor sorption balance pan and loaded into a DVS Intrinsic dynamic vapor sorption balance by Surface Measurement Systems. The sample was subjected to a ramping profile from 40-90% relative humidity (RH) at 10% increments, maintaining the sample at each step until a stable weight had been achieved (dm/dt 0.004%, minimum step length 30 minutes, maximum step length 500 minutes) at 25° C. After completion of the sorption cycle, the sample was dried using the same procedure to 0% RH and then a second sorption cycle back to 40% RH. Two cycles were performed. Theweight change during the sorption/desorption cycles were plotted, allowing for the hygroscopic nature of the sample to be determined. XRPD analysis was then carried out on any solid retained. […] The sample was subjected to a ramping profile from 40-90% relative humidity (RH) at 10% increments, maintaining the sample at each step until a stable weight had been achieved (dm/dt 0.004%, minimum step length 30 minutes, maximum step length 500 minutes) at 25° C. After completion of the sorption cycle, the sample was dried using the same procedure to 0% RH and then a second sorption cycle back to 40% RH. Two cycles were performed. The weight change during the sorption/desorption cycles were plotted, allowing for the hygroscopic nature of the sample to be determined. XRPD analysis was then carried out on any solid retained.

[5] = 70° C./75% RH, first of two lines so headed
[6] = printed 70° C./75% RH, second of two lines so headed

solubility at 18 h ([1]; pH 1.2 HCl buffer, simulated gastric fluid, pH 1.2 HCl, read-out: Solubility pH 1.2 HCl) | solubility at 18 h ([1]; pH 4.5 sodium acetate buffer, aqueous buffer, pH 4.5 sodium acetate, read-out: Solubility pH 4.5 Sodium Acetate) | solubility at 18 h ([1]; pH 6.8 phosphate buffer, aqueous buffer, pH 6.8 phosphate, read-out: Solubility Ph 6.8 Phosphate) | Physical Stability (70° C./75% RH) [2, 5] | Physical Stability (70° C./75% RH) [2, 6] | Hygroscopity, weight gain ([3]; up to 90% relative humidity) | DVS hygroscopic nature [4] | DVS Wt. ([4]; up to 70% RH, possible hydration above 70% RH) | Structure (SMILES) | Hygroscopity [3]
> 20000 µg/mL | 200 µg/mL | 1300 µg/mL | No change | No change | 0.9% | Slightly | hygroscopic 0.7% | Nc1nccc(Sc2cnc(N3CCC4(CC3)Cc3ccccc3[C@H]4N)nn2)c1Cl [Example 3, (S)-1′-(6-((2-amino-3-chloropyridin-4-yl)thio)-1,2,4-triazin-3-yl)-1,3-dihydrospiro[indene-2,4′-piperidin]-1-amine Mono Succinate Salt Form 1] | not hygroscopic
– | – | – | No change | No change | – | – | – | Nc1nccc(Sc2cnc(N3CCC4(CC3)Cc3ccccc3[C@H]4N)nn2)c1Cl.Nc1nccc(Sc2cnc(N3CCC4(CC3)Cc3ccccc3[C@H]4N)nn2)c1Cl.O [Example 2, (S)-1′-(6-((2-amino-3-chloropyridin-4-yl)thio)-1,2,4-triazin-3-yl)-1,3-dihydrospiro[indene-2,4′-piperidin]-1-amine Free Base Hemihydrate (Form 1)] | Non-hygroscopic at 25 °C and exhibits less

— patent publication US20250214966A1, “Crystalline Salt Form Of A SHP2 Inhibitor” (Array BioPharma Inc., priority 2022, published 2025)
